Results on one compound are retold here after patent US20100247427A1, “Methods of inhibiting cell growth and methods of enhancing radiation responses” (University of South Florida, priority 2005, published 2010).

The structures appear in SMILES notation.

In one assay the target is Stat3 (Homo sapiens, UniProt P40763). Conditions: other reports; cited from earlier work.
Another assay deals with DU145 cells. As to the kind of experiment: TUNEL assay for apoptosis. The following applies: Cisplatin plus radiation; FIG. 5. Type of assay: cell-based, Human. As for the experimental part: TUNEL assay. Cells were labeled for apoptotic DNA strand breaks by terminal deoxyribonucleotidyl transferase-mediated dUTP nick end labeling (TUNEL) reaction using a flow cytometry assay (Roche Applied Science, Indianapolis, Ind.) according to the instructions of the supplier. DU145 cells were treated with CPA-7 for 4 hours, then irradiated, and subjected to the TUNEL assay 24 to 48 hours later. To determine cellular viability, cells were harvested by trypsinization and counted by trypan blue exclusion assay at 24 and 48 hours after irradiation. All experiments were done in triplicate.
The enhancement of radiation responsiveness was also evident when apoptosis was measured using a TUNEL assay (FIGS. 4 and 5). DU145 cells were pre-treated for 4 hours with CPA-7 or vehicle alone prior to radiation. A TUNEL assay was performed 24 hours post-radiation and the results are depicted in FIG. 4. At 24 hours, only 2% of untreated cells had undergone spontaneous apoptosis. […] In contrast, 15.7% of cells treated with both radiation and CPA-7 had undergone apoptosis at 24 hours, indicative of a synergistic effect. FIG. 5 depicts the results of a similar assay in which cells were pre-treated with CPA-7 for 24 hours prior to irradiation. […] Additionally, not all platinum complexes have this effect.

Sequence of Stat3 (P40763 whole entry, species assumed): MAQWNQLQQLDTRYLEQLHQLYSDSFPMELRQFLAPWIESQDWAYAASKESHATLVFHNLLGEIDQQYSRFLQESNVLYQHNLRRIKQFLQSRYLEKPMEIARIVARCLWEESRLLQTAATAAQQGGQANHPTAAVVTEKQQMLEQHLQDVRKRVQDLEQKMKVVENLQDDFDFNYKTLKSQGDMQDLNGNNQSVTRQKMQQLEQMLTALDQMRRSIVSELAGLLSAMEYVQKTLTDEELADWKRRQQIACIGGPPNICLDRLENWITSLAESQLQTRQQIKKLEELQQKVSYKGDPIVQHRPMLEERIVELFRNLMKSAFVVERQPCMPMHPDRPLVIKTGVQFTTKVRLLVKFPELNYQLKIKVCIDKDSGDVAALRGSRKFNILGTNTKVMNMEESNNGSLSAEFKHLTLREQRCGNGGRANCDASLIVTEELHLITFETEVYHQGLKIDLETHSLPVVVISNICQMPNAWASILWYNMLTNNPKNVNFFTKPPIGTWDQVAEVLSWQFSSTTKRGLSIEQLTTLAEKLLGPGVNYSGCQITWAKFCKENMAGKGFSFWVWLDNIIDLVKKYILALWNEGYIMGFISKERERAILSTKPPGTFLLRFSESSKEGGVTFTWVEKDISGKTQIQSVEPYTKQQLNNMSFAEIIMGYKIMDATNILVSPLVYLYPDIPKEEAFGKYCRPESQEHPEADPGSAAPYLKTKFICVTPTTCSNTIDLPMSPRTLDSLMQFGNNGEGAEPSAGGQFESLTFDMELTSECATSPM

For `N.N.[Cl][Pt][Cl]` [Cisplatin], the “modulation of Stat3 activation” value at Stat3 is given as “does not modulate Stat3 activation”. Further, the “apoptosis rate in combination with radiation (TUNEL)” value in the assay on DU145 cells is listed as “not significantly enhanced”.
